Source: US11660265B2, “Method of rapidly achieving therapeutic concentrations of triptans for treatment of migraines and cluster headaches” (ZP Opco, Inc., priority 2018, dated 2023)
≈ marks a conversion by molar mass, not a printed value. Read-outs that look alike come from different tables or passages of the source. Values belong to the compound of their own block, whether it stands above or below them.

How the values were obtained:
[1] = target: T1, recombinant human 5-HT1B receptors (Homo sapiens, UniProt P28222); test: Ligand-receptor binding kinetics, 3H-5-carboxamidotryptamine competition, CHO-K1 membranes
T1 construct: expressed in transfected cells; host or cells: CHO-K1
T1 sequence (P28222 whole entry): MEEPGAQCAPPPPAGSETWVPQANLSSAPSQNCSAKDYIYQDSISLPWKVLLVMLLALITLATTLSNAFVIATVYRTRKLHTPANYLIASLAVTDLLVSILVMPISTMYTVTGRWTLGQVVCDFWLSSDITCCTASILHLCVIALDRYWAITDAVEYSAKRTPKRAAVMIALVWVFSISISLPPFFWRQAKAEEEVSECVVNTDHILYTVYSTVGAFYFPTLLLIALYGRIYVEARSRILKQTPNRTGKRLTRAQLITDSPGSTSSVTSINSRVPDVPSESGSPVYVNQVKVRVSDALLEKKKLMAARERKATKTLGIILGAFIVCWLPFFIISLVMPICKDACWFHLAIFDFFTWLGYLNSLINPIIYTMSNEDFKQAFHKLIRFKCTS
Protocol: (§1) Membrane preparations were derived from transfected CHO-K1 cells expressing recombinant human 5-HT1B and 5-HT1D receptors. […] After incubating for various lengths of time, membranes were washed by filtration and residual ^3H counts were determined on a microplate scintillation counter. On-rate constant (kon), off-rate constant (koff), and equilibrium dissociation constant (KD) were determined using nonlinear regression on Prism 4 (GraphPad), and Xlfit (IDBM) software. The following formulae were used in calculating additional parameters using previously derived^2 pharmacokinetic data in healthy human volunteers. Residence time for each ligand on 5-HT1B and 5-HT1D receptors=1/koff.

[2] = target: T2, recombinant human 5-HT1D receptors (Homo sapiens, UniProt P28221); test: as above
T2 construct: expressed in transfected cells; host or cells: CHO-K1
T2 sequence (P28221 whole entry): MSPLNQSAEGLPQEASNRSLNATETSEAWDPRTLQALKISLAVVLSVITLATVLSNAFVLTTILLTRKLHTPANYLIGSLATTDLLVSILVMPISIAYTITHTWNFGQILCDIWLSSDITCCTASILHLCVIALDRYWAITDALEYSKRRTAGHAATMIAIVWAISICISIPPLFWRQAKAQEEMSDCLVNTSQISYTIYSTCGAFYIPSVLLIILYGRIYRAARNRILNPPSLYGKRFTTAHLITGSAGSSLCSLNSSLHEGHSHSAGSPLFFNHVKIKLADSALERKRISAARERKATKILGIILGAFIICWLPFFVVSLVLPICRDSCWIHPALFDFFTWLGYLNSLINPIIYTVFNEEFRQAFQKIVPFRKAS
Protocol: as §1

5HT1B/1D = conditions: cited from earlier work
clinical = test: clinical
Protocol: The final treatment administered was 3.8 mg on a 10 cm^2 patch using an applicator with 0.52 Joule of application energy in the intracutaneous microneedle system described herein. The products tested were:
This was a single-center, open-label, randomized five-way crossover study (Part 1) followed by a sequential study of two additional treatments (Parts 2 and 3). After obtaining informed consent and establishing eligibility, each subject received each of the seven study treatments once, followed by in-clinic monitoring and extensive blood sample collection for pharmacokinetic analysis. […] Plasma samples from the initial dosing days were sent to the analytical laboratory for analysis, and tolerability for each of the dose levels was summarized. […] During Part 3, subjects received a single 3.8 mg patch (applied with a 0.52 J applicator) and also completed identical procedures to the previous dosing days. After completion of the seven dosing days, subjects were assessed one final time and dismissed from the study.
Twenty subjects were enrolled in the study, 10 males and 10 females. The subjects mean age was 29 years±3.5 years with a mean BMI of 24.4±3.5.
PK parameters were summarized by treatment group using descriptive statistics (arithmetic means, standard deviations, coefficients of variation, sample size, minimum, maximum, and median).

migraine = conditions: cited from earlier work; for Pain freedom at 2 hours / Pain relief at 2 hours: lowest oral dose
[3] = cited from earlier work; for Bioavailability: oral tablet
[4] = Solubility of zolmitriptan in various acids; format: physicochemical; conditions: 5 °C, thermodynamic from solid, 2-8° C.
From the text: The suspension was then centrifuged.

in vivo = test: in vivo; parameters: species or system swine; conditions: Yorkshire, pig, iv
Protocol: The M207 patch was tested in swine. Intravenously administered zolmitriptan was used as a control. The inner thigh of the swine was used as the site of administration.
The low limit of quantitation (LLOQ) and high-limit of quantitation (HLOQ) were 0.1 and 1000 ng/mL, respectively. A four minute method utilizing high performance liquid chromatography-electrospray ionization-tandem mass spectrometry (HPLC-ESI-MS/MS) was developed for quantitation of zolmitriptan and its two major metabolites in HGP plasma. The instrumentation consist of Agilent® 1200 pumps, CTC PAL® Autosampler with cooling stack, AB Sciex® TurboV® ESI source, and API 4000® mass spectrometer.
All plasma samples and standards were first protein precipitated using 100% methanol and then diluted with 30% solution of acetonitrile at 1:2 ratio (Plasma: 30% ACN), 20 μL of this solution was injected into autosample. The autosample was equipped with a 100 μL syringe and a 100 μL loop. […]
The HPLC method used was a reversed phase gradient method (0.0 min, 10% B; 0.5 min, 10% B; 1.0 min, 40% B; 1.7 min, 40% B; 2.1 min, 10% B; 4.0 min, 10% B). […] During the mass spectrometer acquisition, eleven MRM transitions were monitored. […] The peak areas under each corresponding MRM transitions were summed and compared to that of spiked standard plasma samples to calculated concentration for each sample. […]

[5] = both, human, in vivo, AUC0-2 hr (SD)
[6] = both, human, in vivo, AUC0-last (SD)
[7] = both, human, in vivo, AUC2 hrs, Mean
[8] = both, human, in vivo, AUCinf, Mean
[9] = both, human, in vivo, Cmax (SD)
[10] = both, human, in vivo, Cmax, Mean
[11] = both, human, in vivo, Tmax Med (Range)
[12] = both, human, in vivo, t1/2, Mean
[13] = plasma N-desmethyl zolmitriptan metabolite
[14] = plasma N-desmethyl zolmitriptan metabolite, in ng·h/mL

Compound: CNCCc1c[nH]c2ccc(C[C@H]3COC(=O)N3)cc12 [N-desmethyl zolmitriptan]
Kd [1]: 0.92 nM
koff [1]: 0.000833 s⁻¹
kon [1]: 900000 M⁻¹ s⁻¹
Kd [2]: 0.43 nM
koff [2]: 0.0009 s⁻¹
kon [2]: 2.1e+06 M⁻¹ s⁻¹
5HT1B/1D potency relative to the parent (5HT1B/1D): 2 to 6 times

AUC(0-t) (clinical; [5]): 70.9 ng·h/mL
AUC(0-t) (clinical; [6]): 101 ng·h/mL
AUC(0-t) (clinical; [7]): 70.9 ng·h/mL
AUC(0-inf) (clinical; [8]): 105 ng·h/mL
Cmax (clinical; [9]): 88.8 ng/mL
Cmax (clinical; [10]): 88.8 ng/mL
Tmax (clinical; [11]): 0.167 h
half-life (clinical; both, human, in vivo, sc, t1/2 Mean (SD)): 1.14 h
Tmax (clinical; both, human, in vivo, sc, tmax Median (Range)): 0.167 h
half-life (clinical; [12]): 1.14 h
Compound: CNS(=O)(=O)Cc1ccc2[nH]cc(CCN(C)C)c2c1 [Sumatriptan, sumatriptan]
24-hour recurrence rate (migraine; among those who achieved headache resolution, 6 mg, different trial): 38%
Tmax ([3]; conventional oral tablet): about 2 hours
Bioavailability [3]: about 15%

AUC0-last / Dose (clinical; both, human, in vivo): 8.6 ng·h/mL/mg
Time to peak plasma concentration of the N-desmethyl metabolite (clinical; both, human, in vivo): 2.7 h
Tmax of N-desmethyl metabolite (clinical; both, human, in vivo): 2.71 h
Tmax, Mean (clinical; both, human, in vivo): 1.79 h
AUC(0-t) (clinical; [5]): 4.7 ng·h/mL
AUC(0-t) (clinical; both, human, in vivo, AUC0-last): 22.2 ng·h/mL
AUC(0-t) (clinical; [6]): 22.2 ng·h/mL
AUC(0-t) (clinical; [7]): 4.72 ng·h/mL
AUC(0-t) (clinical; both, human, in vivo, AUC2 hrs, Median): 4.92 ng·h/mL
AUC(0-inf) (clinical; [8]): 27.2 ng·h/mL
AUC(0-inf) (clinical; both, human, in vivo, AUCinf, Median): 27.1 ng·h/mL
AUC(0-t) (clinical; both, human, in vivo, AUCt, Mean): 22.2 ng·h/mL
AUC(0-t) (clinical; both, human, in vivo, AUCt, Median): 22.6 ng·h/mL
Cmax (clinical; both, human, in vivo, Cmax): 3.8 ng/mL
Cmax (clinical; [9]): 3.8 ng/mL
Cmax (clinical; [10]): 3.77 ± 1.51 ng/mL
Cmax (clinical; both, human, in vivo, Cmax, Median): 3.7 ng/mL
Tmax (clinical; both, human, in vivo, Tmax): 1.8 ± 1.27 h
Tmax (clinical; both, human, in vivo, Tmax (range), median): 1 h
Tmax (clinical; [11]): 1 h
Tmax (clinical; both, human, in vivo, Tmax, Mean): 1.79 h
Tmax (clinical; both, human, in vivo, Tmax, Median): 1 h
half-life (clinical; [12]): 3.27 ± 0.8 h
half-life (clinical; both, human, in vivo, t1/2, Median): 3.28 h
Compound: CN(C)CCc1c[nH]c2ccc(C[C@H]3COC(=O)N3)cc12 [Zolmitriptan 2.5 mg Oral Tablet, zolmitriptan]
Reduction of Cmax and AUC by administration with food ([3]; conventional release tablets): 13-16%
Bioavailability [3]: 41 and 48%

solubility ([4]; aqueous buffer, 0.1 M citric acid): 88.6 mg/mL (≈ 308 mM)
solubility ([4]; aqueous buffer, 0.1 M maleic acid): 50.5 mg/mL (≈ 176 mM)
solubility ([4]; aqueous buffer, 0.1 M succinic acid): 59.1 mg/mL (≈ 206 mM)
solubility ([4]; aqueous buffer, 0.1 M tartaric acid): 63.3 mg/mL (≈ 220 mM)
solubility ([4]; simulated gastric fluid, 0.1 M HCl): 33.3 mg/mL (≈ 116 mM)
AUC(0-t) (clinical; both, human, in vivo, 2.5 mg, AUC2 hrs Mean (SD)): 4.72 ng·h/mL
AUC(0-inf) (clinical; both, human, in vivo, 2.5 mg, AUCinf Mean (SD)): 27.2 ng·h/mL
Cmax (clinical; both, human, in vivo, 2.5 mg, Cmax Mean (SD)): 3.77 ng/mL
half-life (clinical; both, human, in vivo, 2.5 mg, t1/2 Mean (SD)): 3.27 h
Tmax (clinical; both, human, in vivo, 2.5 mg, tmax Median (Range)): 1 h
half-life (clinical; both, human, in vivo, t1/2 Mean (SD)): 1.53 h
Tmax (clinical; both, human, in vivo, tmax Median (Range)): 0.3 h
Tmax (in vivo): 1 min
Kd [1]: 1.47 nM
koff ([1]; read-out: koff (converted)): 0.00127 s⁻¹
kon ([1]; read-out: kon (converted)): 883000 M⁻¹ s⁻¹
Kd [2]: 0.34 nM
koff ([2]; read-out: koff (converted)): 0.001 s⁻¹
kon ([2]; read-out: kon (converted)): 2.9e+06 M⁻¹ s⁻¹
Compound: CN(C)CCc1c[nH]c2ccc(C[C@H]3COC(=O)N3)cc12 [Zolmitriptan, zolmitriptan]
Pain freedom at 2 hours (migraine): 29%
Pain relief at 2 hours (migraine): 62%
Tmax ([3]; nasal administration): about 1.5 hours

Compound: CNS(=O)(=O)CCc1ccc2[nH]cc(C3CCN(C)CC3)c2c1 [naratriptan]
Pain freedom at 2 hours (migraine): 18%
Pain relief at 2 hours (migraine): 49%

Compound: CN(C)CCc1c[nH]c2ccc(C[C@H]3COC(=O)N3)cc12 [nasal treatment of zolmitriptan, zolmitriptan]
Patients pain free at 1 hour (migraine; nasal treatment): about 10%

Compound: CN(C)CCc1c[nH]c2ccc(C[C@H]3COC(=O)N3)cc12 [orally disintegrating tablets, zolmitriptan]
Tmax ([3]; orally disintegrating tablets): about 3 hours

Compound: zolmitriptan [Zolmitriptan 2.5 mg Oral Tablet]
AUC2 hrs, Mean (clinical; [13]): 2.31 ng·h/mL
AUC2 hrs, Median (clinical; [13]): 2.24 ng·h/mL
Cmax, Mean (clinical; [13]): 2.08 ng/mL
Cmax, Median (clinical; [13]): 2.04 ng/mL
AUCinf, Mean (clinical; [14]): 14.55
AUCinf, Median (clinical; [14]): 14.31
AUCt, Mean (clinical; [14]): 13.71
AUCt, Median (clinical; [14]): 13.76
